Measured values taken from patent publication US20140314757A1, “PHYTOCANNABINOIDS FOR USE IN THE TREATMENT OF BREAST CANCER” (priority 2011, published 2014).

Assays:
BT474 cells = test: MTT cell viability, BT474 cells; format: cell-based, human; details: for cell viability, increasing concentrations: 72 h, concentration-related (FIG. 2); for cell viability at low concentrations: <1 μM, alone or 1:1 combination, 72 h (FIG. 3)
Description: (§1) The effect of THC and CBD, alone and in combination, on the viability of two different Her2-positive human breast cancer cell lines: SkBr3 and BT474 were tested.
(§2) Briefly, cells were incubated in RPMI (SkBr3) or DMEM (BT474) supplemented with 10% foetal bovine serum. After 12 hours of serum starvation, the cells were challenged with different concentrations of THC or CBD (or the corresponding vehicle, DMSO) for 72 h. Cell viability was then determined by the colorimetric MTT test.
The analysis of the combined drug effect was performed with the CalcuSyn v2.0 software. To determine whether the combination of THC and CBD was additive or synergistic, we calculated different combination indexes (Cis) using the algorithm by Chou and Talalay with the CalcuSyn v2.0 software.
For each ED, the software (i) plots a line connecting the concentrations of THC and CBD that produce that particular effect when administered as single agents, and (ii) generates a point that indicates the concentration of THC and CBD, applied as a combination, required to produce such effect. If the line is straight, this means that the two compounds are producing a simple additive effect and the point should appear within it.
The effect of THC and CBD, alone and in combination at different ratios, on the viability of BT474 cells was examined.
Cells were incubated in DMEM supplemented with 10% foetal bovine serum. After 12 hours of serum starvation, cells were challenged for 72 h as described in Table 3.1. Cell viability was then determined by the colorimetric MTT test.

SkBr3 cells = test: MTT cell viability, SkBr3 cells; format: cell-based, human; details: for cell viability, increasing concentrations: 72 h, concentration-related (FIG. 2)
Description: as §1, §2

id-1 gene expression = details: MDA-MB231 and MDA-MB436 cell lines; cited from earlier work
[1] = tested on: MDA-MB-231 cells stably overexpressing Her2 (231-Her2); test: MTT cell viability, 231-Her2 cells; format: cell-based, human; details: 48 h (FIGS. 13 and 14)
Description: (§3) Cells were incubated in the presence of cannabinoids for 48 h and cell viability was assessed by the MTT colorimetric test.

MDA-MB-231 cells = test: MTT cell viability, MDA-MB-231 cells; format: cell-based, human; details: 48 h (FIG. 11)
Description: as §3

[2] = tested on: 231-Met (highly metastatic 231-Her2-derived cell line); test: MTT cell viability, highly metastatic 231-Her2 cells; format: cell-based, human; details: for cell viability, increasing concentrations: 72 h (FIG. 9); for IC50 values, cell viability: 72 h, THC compared with CBD (FIG. 9)
Description: The effect of THC and CBD on the viability of a series of Her2-positive human breast cancer cell lines: MDA-MB-231 cells that ectopically overexpress Her2 (231-Her2), a highly metastatic version of 231-Her2 (231-Met), and three different trastuzumab-resistant 231-Her2-derived cell lines (TrR1, TrR2 and TrR3).
Cells were incubated in DMEM supplemented with 10% foetal bovine serum. After 12 hours of serum starvation, cells were challenged with different concentrations of THC or CBD (or the corresponding vehicle, DMSO) for 72 h. Cell viability was then determined by the colorimetric MTT test.
as §3

## SR144528
BT474 cells; 6 μM THC with 2 μM SR144528, 72 h (FIG. 1C)
  effect of CB2 antagonist on THC-induced decrease of viability: prevented
SkBr3 cells; 3 μM THC with 2 μM SR144528, 72 h (FIG. 1C)
  effect of CB2 antagonist on THC-induced decrease of viability: prevented

## C=C(C)[C@@H]1CCC(C)=C[C@H]1c1c(O)cc(CCCCC)cc1O [CBD, cannabidiol]
id-1 gene expression
  id-1 gene expression: inhibit
[1]
  cell viability, single agents, increasing concentrations: decreases
BT474 cells
  cell viability, increasing concentrations: reduced their viability
  cell viability at low concentrations: no effect on cell viability
SkBr3 cells
  cell viability, increasing concentrations: reduced their viability
MDA-MB-231 cells
  cell viability, single agents: sensitive
[2]
  cell viability, increasing concentrations: decreased its viability
  IC50 values, cell viability: virtually identical

## CCCCCc1cc(O)c2c(c1)OC(C)(C)[C@@H]1CCC(C)=C[C@@H]21 [THC, tetrahydrocannabinol]
[1]
  cell viability, single agents, increasing concentrations: decreases
BT474 cells; 6 μM THC, 72 h (FIG. 1C)
  cell viability upon exposure to THC: decreases
BT474 cells
  cell viability, increasing concentrations: reduced their viability
  cell viability at low concentrations: no effect on cell viability
SkBr3 cells; 3 μM THC, 72 h (FIG. 1C)
  cell viability upon exposure to THC: decreases
SkBr3 cells
  cell viability, increasing concentrations: reduced their viability
MDA-MB-231 cells
  cell viability, single agents: sensitive
[2]
  cell viability, increasing concentrations: decreased its viability
  IC50 values, cell viability: virtually identical
